Here are results for 33 molecules from US20090069320A1, “Substituted 4-Amino-Quinazoline Compounds with Metabotropic Glutamate Receptor Regulating Activity and Uses Thereof” (Gruenenthal GmbH, priority 2006, published 2009).

T1 sequence (I3LUI7 19-1212): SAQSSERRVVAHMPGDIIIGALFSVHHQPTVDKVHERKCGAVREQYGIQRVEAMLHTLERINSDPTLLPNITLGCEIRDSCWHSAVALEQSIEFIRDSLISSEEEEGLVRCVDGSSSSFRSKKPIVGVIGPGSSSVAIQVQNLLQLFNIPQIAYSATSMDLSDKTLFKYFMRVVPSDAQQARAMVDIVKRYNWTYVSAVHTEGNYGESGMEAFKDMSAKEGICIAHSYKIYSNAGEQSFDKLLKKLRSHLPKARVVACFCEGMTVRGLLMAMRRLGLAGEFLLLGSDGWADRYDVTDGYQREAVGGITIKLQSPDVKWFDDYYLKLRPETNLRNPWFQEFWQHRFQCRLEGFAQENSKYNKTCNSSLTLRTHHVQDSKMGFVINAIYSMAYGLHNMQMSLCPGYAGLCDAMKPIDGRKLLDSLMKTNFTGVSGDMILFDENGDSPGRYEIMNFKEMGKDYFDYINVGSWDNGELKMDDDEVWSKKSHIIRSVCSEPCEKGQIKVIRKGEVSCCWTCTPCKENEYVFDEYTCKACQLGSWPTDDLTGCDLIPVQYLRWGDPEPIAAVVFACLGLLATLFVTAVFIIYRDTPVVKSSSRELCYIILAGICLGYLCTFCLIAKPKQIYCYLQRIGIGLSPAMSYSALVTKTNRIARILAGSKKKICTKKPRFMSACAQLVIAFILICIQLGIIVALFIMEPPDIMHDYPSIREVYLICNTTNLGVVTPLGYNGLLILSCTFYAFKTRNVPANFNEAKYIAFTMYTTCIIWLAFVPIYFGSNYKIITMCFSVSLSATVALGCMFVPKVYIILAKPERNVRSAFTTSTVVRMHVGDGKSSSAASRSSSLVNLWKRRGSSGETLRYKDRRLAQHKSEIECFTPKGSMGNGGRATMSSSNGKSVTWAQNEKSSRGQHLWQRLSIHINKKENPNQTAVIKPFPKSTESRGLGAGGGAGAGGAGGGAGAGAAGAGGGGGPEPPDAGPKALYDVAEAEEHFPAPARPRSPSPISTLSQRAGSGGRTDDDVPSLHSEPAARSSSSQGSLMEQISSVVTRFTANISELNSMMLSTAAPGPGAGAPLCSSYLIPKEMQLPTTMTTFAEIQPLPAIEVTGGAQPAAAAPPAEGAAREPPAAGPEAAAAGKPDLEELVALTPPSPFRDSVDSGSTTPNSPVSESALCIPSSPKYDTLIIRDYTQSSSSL

The experiment has as its target T1, mGluR5 receptor (Sus scrofa, UniProt I3LUI7).
T1 construct: 450 μg of protein from brain homogenate with 5 nM ^3[H]-MPEP; from tissue; host or cells: pig brain halves without medulla, cerebellum and pons
Kind of experiment: [3H]-MPEP mGluR5 receptor binding assay (pig brain homogenate). The conditions noted are these: 10 μM compound, 5 nM [3H]-MPEP, read-out: % Inhibition of mGluR5 Receptor (pig) [^3H]-MPEP Bond at 10 μM. As for the experimental part:
I. Method for Determining the Inhibition of the [^3H]-MPEP Bond in the mGluR5 Receptor Binding Assay
Pig brain homogenate is produced by homogenizing (Polytron PT 3000, Kinematica AG, 10 000 rpm for 90 seconds) pig brain halves without medulla, cerebellum and pons in pH 8.0 buffer (20 mM Hepes, Sigma, order no. H3375+1 complete tablet, 100 ml, Roche Diagnostics, order no. 1836145) in the ratio of 1:20 (brain weight/volume) and differential centrifuging at 900×g and 40 000×g. In incubation batches of 250 μl in 96-well microtitre plates 450 μg of protein from brain homogenate with 5 nM ^3[H]-MPEP (Tocris, order no. R1212) (MPEP=[…]) and the compounds to be examined (10 μM in test) in buffer (as above) are respectively incubated at room temperature for 60 minutes.
The batches are then filtered using a Brandel cell harvester (Brandel, Robotic 9600) on unifilter plates with fibreglass filter mats (Perkin Elmer, order no. 6005177) and then washed with buffer (as above) 3-times each with 250 μl per sample. The filter plates are then dried for 60 mins. at 55° C. Then, 30 μL of Ultima Gold™ scintillator (Packard BioScience, order no. 6013159) are added per well and after 3 hours the samples are measured on the β-counter (MicroBeta, Perkin Elmer). The non-specific binding is determined by adding 10 μM of MPEP (Tocris, order no. 1212).
In the case of `CC(C)CN(Cc1cccc(-c2ccc3ncnc(N4CCOCC4)c3c2)c1)C(=O)c1cnccn1` [Example 13, pyrazine-2-carboxylic acid isobutyl-[3-(4-morpholin-4-yl-quinazolin-6-yl)-benzyl]-amide], the inhibition (usually the percentage by which the read-out fell short of the control) at 10 µM was found to be 36%.

As to `Cc1ccc(C(=O)N(Cc2cccc(-c3ccc4ncnc(N5CCOCC5)c4c3)c2)CC(C)C)cc1` [Example 22, N-isobutyl-4-methyl-N-[3-(4-morpholin-4-yl-quinazolin-6-yl)-benzyl]-benzamide], the inhibition at 10 µM is 32%.

Take `CC(C)CN(Cc1cccc(-c2ccc3ncnc(N4CCOCC4)c3c2)c1)C(=O)c1cccs1` [Example 29, thiophene-2-carboxylic acid isobutyl-[3-(4-morpholin-4-yl-quinazolin-6-yl)-benzyl]-amide]: the inhibition at 10 µM turned out to be 46%.

`CC(C)CN(Cc1cccc(-c2ccc3ncnc(N4CCOCC4)c3c2)c1)C(=O)CN(C)C` [Example 31, 2-dimethylamino-N-isobutyl-N-[3-(4-morpholin-4-yl-quinazolin-6-yl)-benzyl]-acetamide]: the inhibition at 10 µM came out at 32%.

For the molecule `CC(C)Nc1ncnc2ccc(-c3cccc(CN(Cc4ccccc4)C(=O)c4ccccc4)c3)cc12` [Example 36, N-benzyl-N-[3-(4-isopropylamino-quinazolin-6-yl)-benzyl]-benzamide], the inhibition at 10 µM turned out to be 42%.

On to `CC(C)Nc1ncnc2ccc(-c3cccc(CN(Cc4ccccc4)C(=O)c4ccc(C#N)cc4)c3)cc12` [Example 44, N-benzyl-4-cyano-N-[3-(4-isopropylamino-quinazolin-6-yl)-benzyl]-benzamide], for which the inhibition at 10 µM came to 37%.

For the molecule `CC(C)Nc1ncnc2ccc(-c3cccc(CN(Cc4ccccc4)C(=O)c4cnccn4)c3)cc12` [Example 45, pyrazine-2-carboxylic acid benzyl-[3-(4-isopropylamino-quinazolin-6-yl)-benzyl]-amide], the inhibition at 10 µM was 48%.

Regarding `CC(C)Nc1ncnc2ccc(-c3cccc(CN(Cc4ccccc4)C(=O)c4ccsc4)c3)cc12` [Example 50, thiophene-3-carboxylic acid benzyl-[3-(4-isopropylamino-quinazolin-6-yl)-benzyl]-amide], the inhibition at 10 µM stood at 30%.

On to `CC(C)Nc1ncnc2ccc(-c3cccc(CN(Cc4ccccc4)C(=O)CC#N)c3)cc12` [Example 53, N-benzyl-2-cyano-N-[3-(4-isopropylamino-quinazolin-6-yl)-benzyl]-acetamide], for which the inhibition at 10 µM amounted to 38%.

Regarding `Cc1ccc(C(=O)N(Cc2ccccc2)Cc2cccc(-c3ccc4ncnc(NC(C)C)c4c3)c2)cc1` [Example 54, N-benzyl-N-[3-(4-isopropylamino-quinazolin-6-yl)-benzyl]-4-methyl-benzamide], the inhibition at 10 µM amounted to 47%.

As for `CCN(CC)c1ncnc2ccc(-c3cccc(CN(C)C(=O)C=Cc4ccccc4)c3)cc12` [Example 62, N-[3-(4-diethylamino-quinazolin-6-yl)-benzyl]-N-methyl-3-phenyl-acrylamide], the inhibition at 10 µM was 43%.

Regarding `CCN(CC)c1ncnc2ccc(-c3cccc(CN(C)C(=O)Cc4ccccn4)c3)cc12` [Example 68, N-[3-(4-diethylamino-quinazolin-6-yl)-benzyl]-N-methyl-2-pyridin-2-yl-acetamide], the inhibition at 10 µM came to 30%.

`CCN(CC)c1ncnc2ccc(-c3cccc(CN(C)C(=O)c4cccc(C#N)c4)c3)cc12` [Example 69, 3-cyano-N-[3-(4-diethylamino-quinazolin-6-yl)-benzyl]-N-methyl-benzamide]: the inhibition at 10 µM is 38%.

Regarding `CCN(CC)c1ncnc2ccc(-c3cccc(CN(C)C(=O)c4ccsc4)c3)cc12` [Example 70, thiophene-3-carboxylic acid [3-(4-diethylamino-quinazolin-6-yl)-benzyl]-methyl-amide], the inhibition at 10 µM was determined as 34%.

`CCN(CC)c1ncnc2ccc(-c3cccc(CN(C)C(=O)c4ccc(C)cc4)c3)cc12` [Example 75, N-[3-(4-diethylamino-quinazolin-6-yl)-benzyl]-4,N-dimethyl-benzamide]: the inhibition at 10 µM stood at 32%.

With `CCCN(Cc1cccc(-c2ccc3ncnc(Nc4ccccc4)c3c2)c1)C(=O)c1ccccc1` [Example 89, N-[3-(4-phenylamino-quinazolin-6-yl)-benzyl]-N-propyl-benzamide], the inhibition at 10 µM came to 52%.

Consider `CCCN(Cc1cccc(-c2ccc3ncnc(Nc4ccccc4)c3c2)c1)C(=O)COc1ccccc1` [Example 90, 2-phenoxy-N-[3-(4-phenylamino-quinazolin-6-yl)-benzyl]-N-propyl-acetamide], for which the inhibition at 10 µM worked out at 44%.

Take `CCCN(Cc1cccc(-c2ccc3ncnc(Nc4ccccc4)c3c2)c1)C(=O)c1ccc(C)cc1` [Example 91, 4-methyl-N-[3-(4-phenylamino-quinazolin-6-yl)-benzyl]-N-propyl-benzamide]: the inhibition at 10 µM came out at 54%.

For the molecule `CCCN(Cc1cccc(-c2ccc3ncnc(Nc4ccccc4)c3c2)c1)C(=O)c1ccncc1` [Example 92, N-[3-(4-phenylamino-quinazolin-6-yl)-benzyl]-N-propyl-isonicotinamide], the inhibition at 10 µM came to 74%.

Take `CCCN(Cc1cccc(-c2ccc3ncnc(Nc4ccccc4)c3c2)c1)C(=O)c1ccc(C(F)(F)F)cc1F` [Example 93, 2-fluoro-N-[3-(4-phenylamino-quinazolin-6-yl)-benzyl]-N-propyl-4-trifluoromethyl-benzamide]: the inhibition at 10 µM stood at 38%.

Consider `CCCN(Cc1cccc(-c2ccc3ncnc(Nc4ccccc4)c3c2)c1)C(=O)c1ccc(OC)cc1` [Example 94, 4-methoxy-N-[3-(4-phenylamino-quinazolin-6-yl)-benzyl]-N-propyl-benzamide], for which the inhibition at 10 µM worked out at 75%.

Take `CCCN(Cc1cccc(-c2ccc3ncnc(Nc4ccccc4)c3c2)c1)C(=O)c1ccccn1` [Example 95, pyridine-2-carboxylic acid [3-(4-phenylamino-quinazolin-6-yl)-benzyl]-propyl-amide]: the inhibition at 10 µM amounted to 61%.

In the case of `CCCN(Cc1cccc(-c2ccc3ncnc(Nc4ccccc4)c3c2)c1)C(=O)c1cc2ccccc2cn1` [Example 100, isoquinoline-3-carboxylic acid [3-(4-phenylamino-quinazolin-6-yl)-benzyl]-propyl-amide], the inhibition at 10 µM turned out to be 36%.

With `CCCN(Cc1cccc(-c2ccc3ncnc(Nc4ccccc4)c3c2)c1)C(=O)c1cnccn1` [Example 104, pyrazine-2-carboxylic acid [3-(4-phenylamino-quinazolin-6-yl)-benzyl]-propyl-amide], the inhibition at 10 µM was 48%.

For `CCCN(Cc1cccc(-c2ccc3ncnc(Nc4ccccc4)c3c2)c1)C(=O)Cc1ccccn1` [Example 106, N-[3-(4-phenylamino-quinazolin-6-yl)-benzyl]-N-propyl-2-pyridin-2-yl-acetamide], the inhibition at 10 µM worked out at 39%.

As to `CCCN(Cc1cccc(-c2ccc3ncnc(Nc4ccccc4)c3c2)c1)C(=O)c1ccsc1` [Example 108, thiophene-3-carboxylic acid [3-(4-phenylamino-quinazolin-6-yl)-benzyl]-propyl-amide], the inhibition at 10 µM worked out at 31%.

For the molecule `CCCN(Cc1cccc(-c2ccc3ncnc(Nc4ccccc4)c3c2)c1)C(=O)c1sccc1C` [Example 110, 3-methyl-thiophene-2-carboxylic acid [3-(4-phenylamino-quinazolin-6-yl)-benzyl]-propyl-amide], the inhibition at 10 µM worked out at 43%.

Regarding `CCCN(Cc1cccc(-c2ccc3ncnc(Nc4ccccc4)c3c2)c1)C(=O)c1ccc(O)nc1` [Example 111, 6-hydroxy-N-[3-(4-phenylamino-quinazolin-6-yl)-benzyl]-N-propyl-nicotinamide], the inhibition at 10 µM amounted to 46%.

As for `CCCN(Cc1cccc(-c2ccc3ncnc(Nc4ccccc4)c3c2)c1)C(=O)CC#N` [Example 112, 2-cyano-N-[3-(4-phenylamino-quinazolin-6-yl)-benzyl]-N-propyl-acetamide], the inhibition at 10 µM worked out at 33%.

Regarding `CCCC(=O)N(CCC)Cc1cccc(-c2ccc3ncnc(Nc4ccccc4)c3c2)c1` [Example 115, N-[3-(4-phenylamino-quinazolin-6-yl)-benzyl]-N-propyl-butyramide], the inhibition at 10 µM was 50%.

For `CCCN(Cc1cccc(-c2ccc3ncnc(Nc4ccccc4)c3c2)c1)C(=O)c1cccs1` [Example 116, thiophene-2-carboxylic acid [3-(4-phenylamino-quinazolin-6-yl)-benzyl]-propyl-amide], the inhibition at 10 µM was determined as 47%.

For `CCCN(Cc1cccc(-c2ccc3ncnc(Nc4ccccc4)c3c2)c1)C(=O)c1cccnc1` [Example 117, N-[3-(4-phenylamino-quinazolin-6-yl)-benzyl]-N-propyl-nicotinamide], the inhibition at 10 µM is 68%.

Take `CCCN(Cc1cccc(-c2ccc3ncnc(Nc4ccccc4)c3c2)c1)C(=O)c1ccccc1Cl` [Example 119, 2-chloro-N-[3-(4-phenylamino-quinazolin-6-yl)-benzyl]-N-propyl-benzamide]: the inhibition at 10 µM turned out to be 52%.
